Here are results for eight molecules from PubChem BioAssay (NCI).

Among the test systems are A549 NSCLC; ACHN renal; CCRF-CEM leukemia; HCT-15 colon; MCF7 breast; NCI-H226 lung; NCI-H522 lung; OVCAR-3 ovarian; SF-539 CNS; SNB-75 CNS.
Assay in all cases: NCI-60 cell line screen, 48 h

The structures appear in SMILES notation.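 In this assay, cells in 96-well plates receive the compound at five concentrations for 48 hours. Endpoints are linearly interpolated between the surrounding concentrations. GI50: concentration for 50% inhibition of growth. Definition used: TGI = concentration required for complete inhibition of growth.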

As for `C#Cc1cccc(N2C(=O)CCC2=O)c1`, the TGI in the experiment on A549 NSCLC stood at 42.7 µM; in the experiment on ACHN renal it was 30.6 µM; with CCRF-CEM leukemia, 8.11 µM; in the experiment on HCT-15 colon, 50 µM; in the experiment on MCF7 breast, 44.5 µM; in the experiment with NCI-H226 lung, 35 µM. Also, the TGI worked out at 11.9 µM in the experiment with NCI-H522 lung, 37.3 µM in the experiment on OVCAR-3 ovarian, 46.9 µM in the experiment with SF-539 CNS and 26.8 µM in the experiment on SNB-75 CNS.

On to `COc1ccc2c(c1)C(=O)c1c-2n(CCCN=[N+]=[N-])c(=O)c2cc(OC)c(OC)cc12`, for which the GI50 was 33 µM with A549 NSCLC; 10.2 µM in the experiment on ACHN renal; 4.01 µM in the experiment with CCRF-CEM leukemia; greater than 100 µM with HCT-15 colon; 81.4 µM in the experiment with MCF7 breast; greater than 100 µM in the experiment on NCI-H226 lung. In addition, the GI50 is 43.8 µM in the experiment on NCI-H522 lung, 49.2 µM in the experiment with OVCAR-3 ovarian, 56.5 µM with SF-539 CNS and 14.8 µM in the experiment with SNB-75 CNS. Also, the TGI was greater than 100 µM in the experiment with A549 NSCLC; 25.8 µM with ACHN renal; 16.4 µM in the experiment on CCRF-CEM leukemia; greater than 100 µM in the experiment with HCT-15 colon; greater than 100 µM in the experiment on MCF7 breast; greater than 100 µM in the experiment with NCI-H226 lung. Also, the TGI was greater than 100 µM with NCI-H522 lung, greater than 100 µM in the experiment with OVCAR-3 ovarian, greater than 100 µM with SF-539 CNS and 35.3 µM in the experiment with SNB-75 CNS.

For `CC(C(=O)c1ccccc1)C(c1ccccc1)N1CCOCC1` (stereo not given), the TGI in the experiment with A549 NSCLC, in the experiment with ACHN renal, in the experiment with CCRF-CEM leukemia, with HCT-15 colon, in the experiment on MCF7 breast and with NCI-H226 lung was greater than 100 µM each time. Besides, the TGI in the experiment on NCI-H522 lung, with OVCAR-3 ovarian, in the experiment with SF-539 CNS and in the experiment on SNB-75 CNS was greater than 100 µM in each case.

For the molecule `CCN(Cc1cccc(F)c1)c1ccc(CO)c(Cl)c1`, the GI50 was 2.31 µM in the experiment on A549 NSCLC; 29.4 µM in the experiment with ACHN renal; 24 µM with CCRF-CEM leukemia; 14.5 µM with HCT-15 colon; 0.216 µM in the experiment on MCF7 breast; 0.0467 µM in the experiment on NCI-H226 lung. In addition, the GI50 was 19.2 µM with NCI-H522 lung, 0.711 µM in the experiment with OVCAR-3 ovarian, 23.8 µM in the experiment with SF-539 CNS and 12 µM with SNB-75 CNS. The TGI is 35 µM in the experiment with A549 NSCLC; greater than 100 µM with ACHN renal; greater than 80.7 µM in the experiment with CCRF-CEM leukemia; greater than 100 µM in the experiment on HCT-15 colon; 17.8 µM with MCF7 breast; 0.18 µM in the experiment with NCI-H226 lung. Besides, the TGI in the experiment on NCI-H522 lung worked out at 58.6 µM; in the experiment with OVCAR-3 ovarian it was 6.71 µM; with SF-539 CNS, 63.5 µM; with SNB-75 CNS, 54 µM.

In the case of `CN(C)CCCOc1ccc(-c2ccc3ncc4c(c3c2)n(C2CCOCC2)c(=O)n4C)cn1`, the GI50 with A549 NSCLC is 2.36 µM; in the experiment with ACHN renal it was 2 µM; in the experiment on CCRF-CEM leukemia, 3.02 µM; with HCT-15 colon, 3.08 µM; with MCF7 breast, 0.545 µM; with NCI-H226 lung, 1.73 µM. The GI50 in the experiment with NCI-H522 lung is 0.985 µM; with OVCAR-3 ovarian, 1.34 µM; in the experiment with SF-539 CNS, 1.52 µM; with SNB-75 CNS, 0.396 µM. The TGI in the experiment on A549 NSCLC is 12.3 µM; in the experiment with ACHN renal, 12.6 µM; with CCRF-CEM leukemia, 22.7 µM; in the experiment on HCT-15 colon, 18 µM; in the experiment on MCF7 breast it was 14.5 µM; in the experiment with NCI-H226 lung, 15.2 µM. The TGI in the experiment with NCI-H522 lung is 12.4 µM; in the experiment on OVCAR-3 ovarian, 10.3 µM; in the experiment with SF-539 CNS it was 6.21 µM; in the experiment on SNB-75 CNS, 6.45 µM.

Regarding `COc1cc(OC)cc(N(CCNC(C)C)c2ccc3ncc(-c4cnn(C)c4)nc3c2)c1`, the GI50 was 5.33 µM in the experiment on A549 NSCLC; 2.18 µM in the experiment on ACHN renal; 8.48 µM in the experiment with CCRF-CEM leukemia; 3.34 µM in the experiment on HCT-15 colon; 10.5 µM in the experiment on MCF7 breast; 4.53 µM in the experiment on NCI-H226 lung. In addition, the GI50 in the experiment on NCI-H522 lung is 7.82 µM; in the experiment with OVCAR-3 ovarian it was 5.6 µM; in the experiment with SF-539 CNS, 0.586 µM; in the experiment with SNB-75 CNS, 0.523 µM. The TGI was determined as 19.1 µM in the experiment with A549 NSCLC; 8.12 µM in the experiment on ACHN renal; 47 µM in the experiment with CCRF-CEM leukemia; 13.5 µM with HCT-15 colon; 24.3 µM in the experiment with MCF7 breast; 23 µM in the experiment on NCI-H226 lung. Besides, the TGI in the experiment on NCI-H522 lung was determined as 23.4 µM; in the experiment with OVCAR-3 ovarian, 20.2 µM; with SF-539 CNS it was 7.25 µM; in the experiment on SNB-75 CNS, 4.2 µM.

Regarding `CO[C@H]1/C=C/O[C@@]2(C)Oc3c(C)c(O)c4c(c3C2=O)C(=O)C(/C=N/N(c2ccccc2)c2ccccc2)=C(NC(=O)/C(C)=C\C=C\[C@H](C)[C@H](O)[C@@H](C)[C@@H](O)[C@@H](C)[C@H](OC(C)=O)[C@@H]1C)C4=O`, the GI50 was 1.69 µM with A549 NSCLC; 1.74 µM with ACHN renal; 1.83 µM in the experiment with CCRF-CEM leukemia; 1.63 µM in the experiment with HCT-15 colon; 1.95 µM with MCF7 breast; 1.97 µM in the experiment with NCI-H226 lung. For the same molecule, the GI50 with NCI-H522 lung was 1.72 µM; in the experiment on OVCAR-3 ovarian it was 1.84 µM; in the experiment with SF-539 CNS it was 1.8 µM; with SNB-75 CNS, 1.38 µM. Also, the TGI in the experiment with A549 NSCLC was determined as 3.29 µM; in the experiment with ACHN renal it was 3.28 µM; with CCRF-CEM leukemia, 4.84 µM; with HCT-15 colon, 3.4 µM; in the experiment with MCF7 breast it was 4.23 µM; in the experiment with NCI-H226 lung, 3.98 µM. Also, the TGI is 3.42 µM in the experiment with NCI-H522 lung, 3.34 µM in the experiment on OVCAR-3 ovarian, 3.56 µM with SF-539 CNS and 2.72 µM in the experiment with SNB-75 CNS.

For the molecule `O=S(=O)(Nc1ccccc1Cl)c1ccc(-c2cnc(C3CC3)o2)cc1`, the GI50 in the experiment with A549 NSCLC is 0.867 µM; in the experiment with ACHN renal it was 0.744 µM; with CCRF-CEM leukemia, 0.388 µM; in the experiment with HCT-15 colon, 0.282 µM; with MCF7 breast, 0.284 µM; in the experiment on NCI-H226 lung, 4.84 µM. In addition, the GI50 with NCI-H522 lung is 0.26 µM; in the experiment with OVCAR-3 ovarian, 0.303 µM; with SF-539 CNS, 0.332 µM; with SNB-75 CNS it was 0.139 µM. For the same molecule, the TGI in the experiment on A549 NSCLC is 99.7 µM; in the experiment on ACHN renal it was greater than 100 µM; in the experiment on CCRF-CEM leukemia, greater than 100 µM; in the experiment on HCT-15 colon, greater than 100 µM; with MCF7 breast, greater than 100 µM; in the experiment on NCI-H226 lung, greater than 68.4 µM. The TGI worked out at 15.6 µM in the experiment with NCI-H522 lung, 15.7 µM in the experiment with OVCAR-3 ovarian, 2.33 µM in the experiment on SF-539 CNS and 0.599 µM with SNB-75 CNS.
